Assay results: ChEMBL document CHEMBL4346739, “Design, synthesis, and evaluation of novel N-(4-phenoxybenzyl)aniline derivatives targeting acetylcholinesterase, β-amyloid aggregation and oxidative stress to treat Alzheimer's disease” (Bioorg Med Chem, 2019)
Calls of active or inactive are those of the source. The rule behind the calls is not given here.

How the values were obtained:
[1] = Permeability of compound at 25 ug/ml at pH 7.4 incubated for 18 hrs by PAMPA-BBB assay
Cholinesterase = Cholinesterase (Homo sapiens, UniProt P06276); assay: Inhibition of human plasma BChE using butyrylthiocholine iodide as substrate preincubated for 10 mins followed by substrate addition and measured at 6 mins by Ellman's method
[2] = Octanol/water partition co-efficient, log P of compound at pH 7.4 by shake-flask method; type: physicochemical
Acetylcholinesterase [3] = target: T1, Acetylcholinesterase (Homo sapiens, UniProt P22303); assay: Inhibition of human erythrocyte AChE using acetylthiocholine iodide as substrate preincubated for 10 mins followed by substrate addition and measured for 6 mins by Ellman's method
Mus musculus [4] = assay: Cognitive enhancing effect in albino mouse assessed as reversal of scopolamine-induced reduction in spontaneous alteration score at 5 mg/kg, po administered once daily for 7 days followed by scopolamine challenge for 5 mins prior to test and measured on day 7 by Y-maze test; type: functional, organism-based
Mus musculus [5] = assay: Reversal of scopolamine-induced amnesic effect in albino mouse assessed as increase in transfer latency time of acquisition trial at 5 mg/kg, po administered once daily for 7 days followed by scopolamine challenge and subsequent training session for 5 mins by passive avoidance test; type: functional, organism-based
Mus musculus [6] = assay: Reversal of scopolamine-induced amnesic effect in albino mouse assessed as increase in transfer latency time of retention trial at 5 mg/kg, po administered once daily for 7 days followed by scopolamine challenge and subsequent training session for 5 mins by passive avoidance test; type: functional, organism-based
Acetylcholinesterase [7] = target: T1, Acetylcholinesterase; assay: Competitive inhibition of human erythrocyte AChE at 10 nM to 10 uM using acetylthiocholine iodide as substrate preincubated for 10 mins followed by substrate addition and measured up to 6 mins by Lineweaver-Burk plot analysis
Acetylcholinesterase [8] = target: T1, Acetylcholinesterase; assay: Competitive inhibition of human erythrocyte AChE assessed as […] in Km at 10 nM to 10 uM using acetylthiocholine iodide as substrate preincubated for 10 mins followed by substrate addition and measured up to 6 mins by Lineweaver-Burk plot analysis
Mus musculus [9] = assay: Reversal of scopolamine-induced amnesic effect in albino mouse assessed as increase in transfer latency time of retention trial at 2.5 to 10 mg/kg, po administered once daily for 7 days followed by scopolamine challenge and subsequent training session for 5 mins by passive avoidance test; type: functional, organism-based
[10] = Acute toxicity in Swiss albino mouse assessed as effect on feeding behavior by OECD 423 guideline based method; conditions: in vivo
Mus musculus [11] = assay: Effect on total arm entries in scopolamine-induced spatial memory impairment in albino mouse model of amnesia at 2.5 to 10 mg/kg, po administered once daily for 7 days followed by scopolamine challenge for 5 mins prior to test and measured on day 7 by Y-maze test; type: ADME, organism-based; conditions: in vivo
Mus musculus [12] = assay: In vivo antioxidant activity in albino mouse assessed as increase in scopolamine-induced SOD level in brain at 2.5 to 10 mg/kg, po administered once daily for 7 days followed by scopolamine challenge and measured for 2 mins at 30 secs interval; type: functional, organism-based
[13] = Acute toxicity in Swiss albino mouse assessed as mortality by OECD 423 guideline based method; conditions: in vivo
Acetylcholinesterase [14] = target: T1, Acetylcholinesterase; assay: Inhibition of human erythrocyte AChE-induced amyloid beta (1 to 42) (unknown origin) aggregation incubated for 48 hrs by fluorescence based thioflavin T assay
Mus musculus [15] = assay: Antialzheimer activity in albino mouse assessed as reversal of scopolamine-induced AChE level in brain at 2.5 to 10 mg/kg, po administered once daily for 7 days followed by scopolamine challenge using acetylthiocholine iodide as substrate by Ellman's method; type: functional, organism-based
[16] = Acute toxicity in Swiss albino mouse assessed as diarrhea by OECD 423 guideline based method; conditions: in vivo
Mus musculus [17] = assay: In vivo antioxidant activity in albino mouse assessed as increase in scopolamine-induced catalase activity by measuring decrease in H2O2 level in brain at 2.5 to 10 mg/kg, po administered once daily for 7 days followed by scopolamine challenge; type: functional, organism-based
Mus musculus [18] = assay: Cognitive enhancing effect in albino mouse assessed as reversal of scopolamine-induced reduction in spontaneous alteration score at 2.5 to 10 mg/kg, po administered once daily for 7 days followed by scopolamine challenge for 5 mins prior to test and measured on day 7 by Y-maze test; type: functional, organism-based
Acetylcholinesterase [19] = target: T1, Acetylcholinesterase; assay: (§1) Competitive inhibition of human erythrocyte AChE assessed as enzyme-inhibitor complex formation by measuring 1/s at 10 nM to 10 uM using acetylthiocholine iodide as substrate preincubated for 10 mins followed by substrate addition and measured up to 6 mins by Lineweaver-Burk plot analysis
[20] = Acute toxicity in Swiss albino mouse assessed as convulsions by OECD 423 guideline based method; conditions: in vivo
Acetylcholinesterase [21] = target: T1, Acetylcholinesterase; assay: Competitive inhibition of human erythrocyte AChE assessed as effect on substrate V max at 10 nM to 10 uM using acetylthiocholine iodide as substrate preincubated for 10 mins followed by substrate addition and measured up to 6 mins by Lineweaver-Burk plot analysis
[22] = Acute toxicity in Swiss albino mouse assessed as salivation by OECD 423 guideline based method; conditions: in vivo
[23] = Acute toxicity in Swiss albino mouse assessed as effect on sleep by OECD 423 guideline based method; conditions: in vivo
Mus musculus [24] = assay: In vivo antioxidant activity in albino mouse assessed as decrease in scopolamine-induced MDA level in brain at 2.5 to 10 mg/kg, po administered once daily for 7 days followed by scopolamine challenge by TBARS assay; type: functional, organism-based
Acetylcholinesterase [25] = target: T1, Acetylcholinesterase; assay: as §1, with “intersection points on both axes of 1/Vmax and 1/[S]” for “1/s”
Mus musculus [26] = assay: Reversal of scopolamine-induced amnesic effect in albino mouse assessed as increase in transfer latency time of acquisition trial at 2.5 to 10 mg/kg, po administered once daily for 7 days followed by scopolamine challenge and subsequent training session for 5 mins by passive avoidance test; type: functional, organism-based
[27] = Acute toxicity in Swiss albino mouse assessed as induction of tremors by OECD 423 guideline based method; conditions: in vivo

T1 sequence (P22303 whole entry): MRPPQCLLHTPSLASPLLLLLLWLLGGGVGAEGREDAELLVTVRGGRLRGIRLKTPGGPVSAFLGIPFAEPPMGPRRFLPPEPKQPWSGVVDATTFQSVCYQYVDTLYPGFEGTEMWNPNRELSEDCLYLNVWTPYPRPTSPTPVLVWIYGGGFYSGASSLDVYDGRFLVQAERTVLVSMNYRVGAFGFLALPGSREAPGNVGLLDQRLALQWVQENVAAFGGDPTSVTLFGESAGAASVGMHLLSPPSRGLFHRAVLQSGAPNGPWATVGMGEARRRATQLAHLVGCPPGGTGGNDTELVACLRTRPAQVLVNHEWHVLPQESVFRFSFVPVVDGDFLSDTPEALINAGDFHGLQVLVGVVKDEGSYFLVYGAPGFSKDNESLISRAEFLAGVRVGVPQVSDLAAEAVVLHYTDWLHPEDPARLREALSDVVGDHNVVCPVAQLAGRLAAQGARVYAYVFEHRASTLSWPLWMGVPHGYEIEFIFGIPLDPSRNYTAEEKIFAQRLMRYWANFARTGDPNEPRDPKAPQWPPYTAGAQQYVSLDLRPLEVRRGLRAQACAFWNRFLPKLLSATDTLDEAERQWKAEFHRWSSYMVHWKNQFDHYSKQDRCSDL
Sequence of Cholinesterase (P06276 whole entry): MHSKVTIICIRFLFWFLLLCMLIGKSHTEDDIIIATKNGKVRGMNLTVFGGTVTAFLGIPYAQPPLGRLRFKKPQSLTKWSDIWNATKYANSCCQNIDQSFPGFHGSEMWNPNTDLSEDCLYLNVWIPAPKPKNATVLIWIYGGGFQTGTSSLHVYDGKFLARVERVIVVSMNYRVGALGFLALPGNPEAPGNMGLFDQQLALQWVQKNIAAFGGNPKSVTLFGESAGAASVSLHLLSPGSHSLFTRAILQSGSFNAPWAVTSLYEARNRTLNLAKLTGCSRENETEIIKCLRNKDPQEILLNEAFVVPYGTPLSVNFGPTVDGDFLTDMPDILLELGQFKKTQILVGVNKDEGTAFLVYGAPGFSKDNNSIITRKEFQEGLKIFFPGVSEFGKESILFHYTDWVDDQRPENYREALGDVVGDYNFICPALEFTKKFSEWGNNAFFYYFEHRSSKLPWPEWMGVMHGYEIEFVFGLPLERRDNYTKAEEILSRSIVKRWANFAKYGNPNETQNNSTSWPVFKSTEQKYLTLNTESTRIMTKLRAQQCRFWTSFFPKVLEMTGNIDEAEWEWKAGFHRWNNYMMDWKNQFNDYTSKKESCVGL

CC(=O)[C@H]1CC[C@H]2[C@@H]3CCC4=CC(=O)CC[C@]4(C)[C@H]3CC[C@]12C [PROGESTERONE]
Papp at 18 h, 25 ug/ml [1]: 9.3 to 13.8 ×10⁻⁶ cm/s

COc1cccc(NCc2ccc(Oc3c(N)cccc3Cl)cc2)c1
Papp at 18 h, 25 ug/ml [1]: 4.65 ×10⁻⁶ cm/s | IC50 (Cholinesterase): 8.25 µM | logD [2]: 3.98 | IC50 (Acetylcholinesterase [3]): 5.65 µM

COc1cc(NCc2ccc(Oc3c(N)cccc3Cl)cc2)cc(OC)c1
Papp at 18 h, 25 ug/ml [1]: 4.54 ×10⁻⁶ cm/s | IC50 (Cholinesterase): 6.42 µM | logD [2]: 3.56 | IC50 (Acetylcholinesterase [3]): 2.88 µM

Nc1cccc(Cl)c1Oc1ccc(CNc2ccc(Br)cc2)cc1
Papp at 18 h, 25 ug/ml [1]: 3.48 ×10⁻⁶ cm/s | IC50 (Cholinesterase): > 10 µM | logD [2]: 4.52 | IC50 (Acetylcholinesterase [3]): > 10 µM

COc1cc2c(cc1OC)C(=O)C(CC1CCN(Cc3ccccc3)CC1)C2 (configuration not stated)
Activity (Mus musculus [4]): Active | Activity (Mus musculus [5]): Active | Activity (Mus musculus [6]): Active

Nc1cccc(Cl)c1Oc1ccc(CNc2ccccc2)cc1
Papp at 18 h, 25 ug/ml [1]: 6.26 ×10⁻⁶ cm/s | IC50 (Cholinesterase): > 10 µM | logD [2]: 3.54 | IC50 (Acetylcholinesterase [3]): > 10 µM

Nc1cccc(Cl)c1Oc1ccc(CNc2cc(Cl)cc(Cl)c2)cc1
Papp at 18 h, 25 ug/ml [1]: 1.56 ×10⁻⁶ cm/s | IC50 (Cholinesterase): > 10 µM | logD [2]: 4.39 | IC50 (Acetylcholinesterase [3]): > 10 µM

CCn1cc(C(=O)O)c(=O)c2cc(F)c(N3CCNC(C)C3)c(F)c21 (configuration not stated) [LOMEFLOXACIN]
Papp at 18 h, 25 ug/ml [1]: 0.31 to 1.1 ×10⁻⁶ cm/s

Nc1cccc(Cl)c1Oc1ccc(CNc2ccc(O)cc2)cc1
Papp at 18 h, 25 ug/ml [1]: 6.87 ×10⁻⁶ cm/s | IC50 (Cholinesterase): 9.36 µM | logD [2]: 3.15 | IC50 (Acetylcholinesterase [3]): 8.81 µM

Nc1cccc(Cl)c1Oc1ccc(CNc2cccc(Br)c2)cc1
Papp at 18 h, 25 ug/ml [1]: 3.56 ×10⁻⁶ cm/s | IC50 (Cholinesterase): > 10 µM | logD [2]: 4.05 | IC50 (Acetylcholinesterase [3]): > 10 µM

Nc1cccc(Cl)c1Oc1ccc(CNc2cc(Br)cc(Br)c2)cc1
Papp at 18 h, 25 ug/ml [1]: 1.45 ×10⁻⁶ cm/s | IC50 (Cholinesterase): > 10 µM | logD [2]: 4.52 | IC50 (Acetylcholinesterase [3]): > 10 µM

COc1ccc(NCc2ccc(Oc3c(N)cccc3Cl)cc2)cc1
Papp at 18 h, 25 ug/ml [1]: 5.68 ×10⁻⁶ cm/s | IC50 (Cholinesterase): 9.97 µM | logD [2]: 3.33 | IC50 (Acetylcholinesterase [3]): 5.24 µM

Nc1cccc(Cl)c1Oc1ccc(CNc2ccc(Cl)cc2)cc1
Papp at 18 h, 25 ug/ml [1]: 3.42 ×10⁻⁶ cm/s | IC50 (Cholinesterase): > 10 µM | logD [2]: 4.65 | IC50 (Acetylcholinesterase [3]): > 10 µM

Cc1nnc2n1-c1ccc(Cl)cc1C(c1ccccc1)=NC2 [ALPRAZOLAM]
Papp at 18 h, 25 ug/ml [1]: 4.2 to 5.4 ×10⁻⁶ cm/s

NCCc1ccc(O)c(O)c1 [DOPAMINE]
Papp at 18 h, 25 ug/ml [1]: 0.18 to 0.2 ×10⁻⁶ cm/s

COc1cc(NCc2ccc(Oc3c(N)cccc3Cl)cc2)cc(OC)c1OC
Ki (Acetylcholinesterase [7]): 0.879 µM | Activity (Mus musculus [4]): Active | inhibition (Acetylcholinesterase [8]): Active | Activity (Mus musculus [9]): Dose-dependent effect | Activity [10]: Non-Toxic | Activity (Mus musculus [11]): Non-Toxic | Activity (Mus musculus [12]): Active | Activity [13]: Non-Toxic | inhibition (Acetylcholinesterase [14]): Dose-dependent effect | Papp at 18 h, 25 ug/ml [1]: 6.35 ×10⁻⁶ cm/s | Activity (Mus musculus [15]): Dose-dependent effect | IC50 (Cholinesterase): 8.41 µM | logD [2]: 3.78 | Activity [16]: Non-Toxic | Activity (Mus musculus [17]): Active | Activity (Mus musculus [18]): Active | fold change (FC) (Acetylcholinesterase [19]): > 0 | Activity [20]: Non-Toxic | inhibition (Acetylcholinesterase [21]): Active | IC50 (Acetylcholinesterase [3]): 1.32 µM | Activity [22]: Non-Toxic | Activity [23]: Non-Toxic | Activity (Mus musculus [24]): Active | Ratio (Acetylcholinesterase [25]): > 0 | Activity (Mus musculus [26]): Active | Activity [27]: Non-Toxic

CN(C)CCCN1c2ccccc2Sc2ccc(Cl)cc21 [CHLORPROMAZINE]
Papp at 18 h, 25 ug/ml [1]: 5.8 to 6.5 ×10⁻⁶ cm/s

Nc1cccc(Cl)c1Oc1ccc(CNc2cccc(Cl)c2)cc1
Papp at 18 h, 25 ug/ml [1]: 5.65 ×10⁻⁶ cm/s | IC50 (Cholinesterase): > 10 µM | logD [2]: 3.98 | IC50 (Acetylcholinesterase [3]): > 10 µM

Nc1cccc(Cl)c1Oc1ccc(CNc2cccc(O)c2)cc1
Papp at 18 h, 25 ug/ml [1]: 5.55 ×10⁻⁶ cm/s | IC50 (Cholinesterase): 9.45 µM | logD [2]: 3.01 | IC50 (Acetylcholinesterase [3]): 7.23 µM
